This is an account of results in publication PMC8667043, “First-in-Class Inhibitors of the Ribosomal Oxygenase MINA53” (Journal of Medicinal Chemistry, 2021).

The IC50 is the concentration that inhibits the measured activity by half.

Holding throughout (type): biochemical
One test has as its target T1, KDM4A (Homo sapiens, UniProt O75164).
T1 construct: (M1- N-terminal R1641) His6-tagged N-terminal His6-tagged L359); made in house; host or cells: E. coli
T1 sequence (O75164 1-359): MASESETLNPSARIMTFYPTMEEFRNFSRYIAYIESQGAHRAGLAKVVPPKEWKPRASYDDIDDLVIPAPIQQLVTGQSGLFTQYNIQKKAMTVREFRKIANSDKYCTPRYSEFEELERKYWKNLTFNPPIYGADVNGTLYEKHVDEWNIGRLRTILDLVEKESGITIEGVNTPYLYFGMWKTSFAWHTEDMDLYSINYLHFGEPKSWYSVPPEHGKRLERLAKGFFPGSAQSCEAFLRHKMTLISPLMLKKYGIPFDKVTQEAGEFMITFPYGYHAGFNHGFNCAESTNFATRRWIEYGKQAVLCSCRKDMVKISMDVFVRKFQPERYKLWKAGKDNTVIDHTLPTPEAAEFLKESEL
Description: AlphaScreen KDM inhibition assay. The settings on record: read-out: IC50 KDM4A (4 nM), enzyme 4 nM, means ± SD. (Bead proximity is the source of the signal in Alpha formats.)

The target in another test is T2, PCAF (Homo sapiens, UniProt Q92831).
T2 construct: purchased Reaction Biology Corporation, Malvern, PA, USA
Description: HotSpot KAT assay. The conditions noted are these: means ± SD of three experiments, read-out: Residual Enzymatic Activity (%) PCAF. On the procedure:
(§1) The ef fects of 1-13 on th e histone lysine acetyltr a nsferas e activity (KAT ) o f p300 and PCAF were
(§2) determined using the HotSpot KAT assay ( Reaction Biology Corporation, Malvern, PA, USA)
(§3) according to the supplier’s procedure. In brief, recombinant form s of catal ytic domains of PCAF
(§4) NaCl, 0.1 mM EDTA, 1 mM DTT, 1 mM PMSF, 1% (v/v) DMSO) fo r 1 h at 30 °C in the presenc e
(§5) or absence of various concentrations of the inhibitors. Histone H3 acetyl ation was assessed by
(§6) liquid scintillation counting using a Tri-Carb 2800TR Liquid Scintillation Analyzer
(§7) (PerkinElmer). Assays at fixed con centration doses were performed in triplicate and analyzed
(§8) using Excel and GraphPad Prism 6.0 software (GraphPad Software Inc., San Diego, CA).

The target in the next test is T3, p300 (Homo sapiens, UniProt Q09472).
T3 construct: purchased Reaction Biology Corporation, Malvern, PA, USA
T3 sequence (Q09472 1284-1673): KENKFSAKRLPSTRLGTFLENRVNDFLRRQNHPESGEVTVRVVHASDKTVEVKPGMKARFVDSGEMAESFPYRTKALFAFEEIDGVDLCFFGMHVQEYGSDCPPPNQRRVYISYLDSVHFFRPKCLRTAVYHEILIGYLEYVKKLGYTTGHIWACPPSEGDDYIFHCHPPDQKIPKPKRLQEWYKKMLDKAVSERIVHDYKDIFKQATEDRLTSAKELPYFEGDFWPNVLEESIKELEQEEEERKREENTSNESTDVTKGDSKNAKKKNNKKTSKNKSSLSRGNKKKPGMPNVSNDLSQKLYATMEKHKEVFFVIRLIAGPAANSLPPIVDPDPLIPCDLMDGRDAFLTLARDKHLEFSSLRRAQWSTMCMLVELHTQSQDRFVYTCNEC
Description: HotSpot KAT assay. The settings on record: 100 µM; means ± SD of three experiments; read-out: Residual Enzymatic Activity (%) p300. On the procedure: as §1, §2, §3, §4, §5, §6, §7, §8

Another test has as its target T4, NO66 (Homo sapiens, UniProt Q9H6W3).
T4 construct: histidine tag (TEV-cleavable) (cleaved yes); made in house; host or cells: E. coli BL21(DE3)-R3-pRARE2
T4 sequence (Q9H6W3 183-641): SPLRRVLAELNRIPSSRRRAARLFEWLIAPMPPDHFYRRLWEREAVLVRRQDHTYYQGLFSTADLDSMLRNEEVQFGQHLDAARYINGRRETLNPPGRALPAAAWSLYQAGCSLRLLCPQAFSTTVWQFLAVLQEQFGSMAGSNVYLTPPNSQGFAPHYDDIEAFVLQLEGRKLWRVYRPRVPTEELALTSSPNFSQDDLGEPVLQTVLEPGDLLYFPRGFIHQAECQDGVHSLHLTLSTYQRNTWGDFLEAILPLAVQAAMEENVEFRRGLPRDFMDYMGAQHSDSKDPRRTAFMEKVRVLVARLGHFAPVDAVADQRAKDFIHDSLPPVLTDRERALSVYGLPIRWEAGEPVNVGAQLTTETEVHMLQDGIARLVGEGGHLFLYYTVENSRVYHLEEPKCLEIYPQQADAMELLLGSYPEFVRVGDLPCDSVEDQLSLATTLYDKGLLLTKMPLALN
In words: NO66 MS (RapidFire) hydroxylation inhibition assay, Rpl8 peptide. The conditions noted are these: IC50 NO66 (300 nM), MS based; enzyme 300 nM; means ± SD of at least three experiments.

Another test has as its target T5, MINA53 (Homo sapiens, UniProt Q8IUF8).
T5 construct: MINA53 (Met1-Val464 and Ala26-Val464); histidine tag (TEV-cleavable) (cleaved yes); made in house; host or cells: E. coli BL21(DE3)-R3-pRARE2
In words: MINA53 MS (RapidFire) hydroxylation inhibition assay, Rpl27a peptide. The conditions noted are these: MS based; enzyme 150 nM; means ± SD of at least three experiments; read-out: IC50 MINA53 (150 nM).

The target of the next test is T6, KDM4D (Homo sapiens, UniProt Q6B0I6).
T6 construct: (M1-G373); His6 (N); made in house; host or cells: E. coli
T6 sequence (Q6B0I6 1-373): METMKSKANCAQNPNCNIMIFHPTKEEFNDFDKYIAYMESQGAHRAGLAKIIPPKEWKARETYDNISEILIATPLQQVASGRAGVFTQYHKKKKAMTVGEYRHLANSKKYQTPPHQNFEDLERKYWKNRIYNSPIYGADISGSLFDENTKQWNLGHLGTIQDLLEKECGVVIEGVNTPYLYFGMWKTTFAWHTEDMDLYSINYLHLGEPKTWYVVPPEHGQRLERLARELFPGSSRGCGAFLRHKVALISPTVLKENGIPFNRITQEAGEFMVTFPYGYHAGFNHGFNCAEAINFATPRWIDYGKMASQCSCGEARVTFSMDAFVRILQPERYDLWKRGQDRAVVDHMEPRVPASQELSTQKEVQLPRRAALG
In words: AlphaScreen KDM inhibition assay. The conditions noted are these: read-out: IC50 KDM4D (2.0 nM), enzyme 2.0 nM, means ± SD.

The target of a further test is T7, KDM6B (Homo sapiens, UniProt O15054).
T7 construct: (D1141- N-terminal S1761) N-terminal (M1- N-terminal R1641); made in house; host or cells: E. coli
In words: AlphaScreen KDM inhibition assay. The conditions noted are these: read-out: IC50 KDM6B (0.1 nM), enzyme 0.1 nM, means ± SD.

T7 sequence (O15054 1141-1643 limits assumed): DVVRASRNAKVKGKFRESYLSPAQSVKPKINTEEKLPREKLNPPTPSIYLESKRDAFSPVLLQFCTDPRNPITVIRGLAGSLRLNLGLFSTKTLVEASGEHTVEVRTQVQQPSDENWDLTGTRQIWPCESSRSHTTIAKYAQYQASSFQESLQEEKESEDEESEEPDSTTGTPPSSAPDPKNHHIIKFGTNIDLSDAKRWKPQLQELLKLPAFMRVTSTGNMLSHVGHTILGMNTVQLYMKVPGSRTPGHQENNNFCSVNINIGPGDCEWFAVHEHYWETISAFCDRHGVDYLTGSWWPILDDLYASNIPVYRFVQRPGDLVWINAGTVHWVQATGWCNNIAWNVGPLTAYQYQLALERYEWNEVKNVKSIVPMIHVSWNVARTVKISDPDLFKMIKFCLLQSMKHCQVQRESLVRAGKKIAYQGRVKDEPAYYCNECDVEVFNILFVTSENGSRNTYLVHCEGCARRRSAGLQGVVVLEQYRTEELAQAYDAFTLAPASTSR
T5 sequence (Q8IUF8 1-464 isoform Q8IUF8-4): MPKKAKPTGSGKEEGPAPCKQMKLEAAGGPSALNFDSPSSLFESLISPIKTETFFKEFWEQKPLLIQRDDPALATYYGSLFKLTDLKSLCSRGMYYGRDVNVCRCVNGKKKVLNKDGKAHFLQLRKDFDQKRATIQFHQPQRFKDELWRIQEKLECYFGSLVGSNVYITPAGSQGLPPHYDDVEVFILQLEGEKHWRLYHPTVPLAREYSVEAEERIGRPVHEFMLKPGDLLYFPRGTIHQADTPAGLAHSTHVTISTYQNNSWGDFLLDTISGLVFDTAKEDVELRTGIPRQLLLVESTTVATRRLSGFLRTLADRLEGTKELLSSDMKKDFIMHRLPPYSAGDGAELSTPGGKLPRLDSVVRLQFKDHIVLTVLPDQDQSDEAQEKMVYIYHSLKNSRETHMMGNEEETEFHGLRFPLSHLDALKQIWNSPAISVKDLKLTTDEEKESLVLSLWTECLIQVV
T2 sequence (Q92831 492-658): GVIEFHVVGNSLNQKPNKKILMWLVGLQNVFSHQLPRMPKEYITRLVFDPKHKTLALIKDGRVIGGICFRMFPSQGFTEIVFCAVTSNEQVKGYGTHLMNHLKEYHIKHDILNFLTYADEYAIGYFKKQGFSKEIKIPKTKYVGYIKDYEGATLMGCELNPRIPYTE

For the molecule `CCCCCCCCCSc1ncc(C(=O)O)c(=O)[nH]1` [compound 5, 2-(Nonylthio)-3,4-dihydro-4-oxopyrimidine-5-carboxylic Acid], the IC50 is 13.4 ± 1 µM on KDM4A; greater than 200 µM at NO66; 65.4 ± 5 µM on MINA53; 19.8 ± 0.9 µM at KDM4D; 67.1 ± 3 µM at KDM6B. Moreover, the figures for the remaining activity at 100 µM on PCAF and on p300 were 104 ± 3.7% and 106 ± 3.5%, respectively.
